These results are taken from patent publication EP1621203A1, “RNAIII-inhibiting peptides for treating HIV infection” (Genoscience, priority 2004, dated 2006).

pIC50: −log10 of the molar value. Counter-ions that a name gives are not always drawn. Like-named read-outs stand apart in the source and are kept apart here. Where a SMILES comes first, the peptide text is derived from it. Bridges are numbered along the chain shown (N, C = ends). Roman numbers before positions name the chains, in order. Where no end group is shown, it is not given here. [ ]: non-standard residue; d: D form. Ava = NCCCCC(=O)O

The test system of experiment [1] is HIV-1 NL4-3. It counts as cell-based. Particulars: for pIC50: NL4-3. The procedure:
(§1) Cell cultures - Human peripheral blood lymphocytes (PBL) obtained from healthy HIV-seronegative donors were isolated by Ficoll-Hypaque gradient centrifugation and maintained in RPMI 1640 with ultraglutamine supplemented with […], 100 U/ml penicillin and […] streptamycin, and 10% heat-inactivated fetal calf serum. Cells were stimulated three days in the medium supplemented with 20 U/ml phytohemagglutinin P before evaluation of the antiviral activity. The human C8166 T-cell line was maintained in RPMI 1640 supplemented with 100 U/ml penicillin and […] streptamycin, and 10% heat-inactivated fetal calf serum.
(§2) Evaluation of antiviral activity on human immune cells - Samples of 3 x 10^5 human PBL in […] are preincubated in 96-well plates with various concentrations of each peptide at 37°C (incubator flushed with 5% CO2). After 1 hour incubation, […] of viral suspension (HIV-1 NL4-3 strain) was added at a multiplicity of infection of 1,000 TCID50 per ml. After three washings, cells were cultured in 24-well plates with 1 ml of RPMI 1640 in the continuous presence of the peptides. The cell culture medium was replaced at day 4 post-infection. During this assay, treatment with antiviral compounds was permanent (before, during and after infection). Toxicity was evaluated through daily cell counts and trypan-blue exclusion assays. Infection of human PBL was assessed daily by virus-induced cytopathic effects (syncytium formation) and after 14 days by quantification of p24 antigen in culture supernatants. Measurements of HIV-1 p24 concentrations in the culture supernatant were achieved by ELISA with a detection cut-off of 5 pg/ml (p24 HIV kit, Perkin-Elmer). Similar assays were performed with human C8166 T-cells. Data on PBL are the mean of two separate experiments realized in duplicate.

The subject of experiment [2] is HIV-1 NL4-3. In words: Infection assay on human PBL with HIV-1 NL4-3 (syncytium formation, p24 antigen ELISA). It counts as cell-based. As to conditions: Human immunodeficiency virus 1, NL43, HIV-1 NL4-3 (1,000 TCID50), peptides continuously present; for pIC50: read-out: IC50 (50% inhibitory concentration); for IC100: read-out: IC100 (100% inhibitory concentration). The procedure: as §1, §2

Turning to `C[C@@H](O)[C@H](NC(=O)[C@H](Cc1c[nH]c2ccccc12)NC(=O)[C@@H]1CCCN1C(=O)[C@H](CO)NC(=O)[C@@H](N)Cc1ccc(O)cc1)C(=O)N[C@@H](CC(N)=O)C(=O)N[C@@H](Cc1ccccc1)C(=O)NCCCC[C@H](NC(=O)[C@H](Cc1ccccc1)NC(=O)[C@H](CC(N)=O)NC(=O)[C@@H](NC(=O)[C@H](Cc1c[nH]c2ccccc12)NC(=O)[C@@H]1CCCN1C(=O)[C@H](CO)NC(=O)[C@@H](N)Cc1ccc(O)cc1)[C@@H](C)O)C(=O)NCCCC[C@H](NC(=O)[C@H](CCCCNC(=O)[C@H](Cc1ccccc1)NC(=O)[C@H](CC(N)=O)NC(=O)[C@@H](NC(=O)[C@H](Cc1c[nH]c2ccccc12)NC(=O)[C@@H]1CCCN1C(=O)[C@H](CO)NC(=O)[C@@H](N)Cc1ccc(O)cc1)[C@@H](C)O)NC(=O)[C@H](Cc1ccccc1)NC(=O)[C@H](CC(N)=O)NC(=O)[C@@H](NC(=O)[C@H](Cc1c[nH]c2ccccc12)NC(=O)[C@@H]1CCCN1C(=O)[C@H](CO)NC(=O)[C@@H](N)Cc1ccc(O)cc1)[C@@H](C)O)C(N)=O` [(YSPWTNF)4-K2-K-NH2] (I: H-YSPWTNFKK-NH2 / II: H-YSPWTNFK / III: H-YSPWTNF / IV: H-YSPWTNF; amide I:8-IV:C, I:9-II:C, II:8-III:C), in experiment [1], the pIC50 is 6.00.
`C[C@@H](O)[C@H](NC(=O)[C@H](Cc1c[nH]c2ccccc12)NC(=O)[C@@H]1CCCN1C(=O)[C@H](CO)NC(=O)[C@@H](N)Cc1ccc(O)cc1)C(=O)N[C@@H](CC(N)=O)C(=O)N[C@@H](Cc1ccccc1)C(=O)NCCCCC(N)=O` [YSPWTNF-valerate-NH2] (H-YSPWTNF[Ava]-NH2; N-terminus assumed) showed a pIC50 in experiment [1] of 6.30. For the same compound, the “IC100 (100% inhibitory concentration)” value in experiment [1] (human PBL, HIV-1 NL4-3 (1,000 TCID50), peptides continuously present) is greater than 5 µM.
On to `Nc1ccn([C@@H]2CS[C@H](CO)O2)c(=O)n1` [Epivir®, Lamivudine], for which, in experiment [2], the pIC50 is 7.30 and the IC100 was determined as 0.5 µM.
In experiment [1], YSPITNF-NH2 [YSPITNF-NH2] had a pIC50 of 6.52.
Turning to `CC(C)(C)NC(=O)[C@@H]1CN(Cc2cccnc2)CCN1C[C@@H](O)C[C@@H](Cc1ccccc1)C(=O)N[C@H]1c2ccccc2C[C@H]1O` [Crixivan®, Indinavir Sulfate], in experiment [2], the pIC50 is 7.15 and the IC100 turned out to be 0.5 µM.
In turn, YSPWTNF-NH2 [YSPWTNF-NH2] gave a pIC50 in experiment [1] of 8.00.
Same read-out and setting: next, `C[C@H](O)[C@@H](NC(=O)[C@@H](Cc1c[nH]c2ccccc12)NC(=O)[C@H]1CCCN1C(=O)[C@@H](CO)NC(=O)[C@H](N)Cc1ccc(O)cc1)C(=O)N[C@H](CC(N)=O)C(=O)N[C@H](Cc1ccccc1)C(N)=O` [YdSdPdWdTdNdFd-NH2] (H-[dY][dS][dP][dW][dT][dN][dF]-NH2): 5.30.
